According to patent publication US20240117005A1, “NOVEL BICYCLIC PEPTIDES” (THE COUNCIL OF THE QUEENSLAND INSTITUTE OF MEDICAL RESEARCH, priority 2021, published 2024):
No end group written: not given here. *: point of attachment. Myristyl = CCCCCCCCCCCCCC*

Assays:
[1] = test system: CSC; test: CSC inhibition (Table 10 summary); type: cell-based; settings: linear peptide derivatives; change stated relative to prototype PDL1-L1
[2] = test system: MCF-7 cells; test: RNA-seq differential expression, DL-2 vs. Stimulated; type: cell-based, human; settings: MCF-7, DL-2 vs. Stimulated (PMA)
From the text: RNA-sequencing (RNA seq) data were obtained from human breast cancer cell line MCF-7 with and without DL-2 treatment. A total of 9 samples from […] experimental groups were collected, as follows: • Control (non-stimulated control, Ctrl) (n=3); • Stimulated (PMA stimulated control) (n=3); • DL-2 (treated with DL-2 and stimulated with PMA) (n=3); For the DL-2 treatment group, the MCF-7 cells were exposed to DL-2 first, then stimulated with PMA thereafter. RNA-seq data were generated, fastq data were downloaded to the QIMR Berghofer server, and then archived to the HSM by Scott Wood. Sequence reads were trimmed for adapter sequences using Cutadapt (version 1.9; Martin (2011)) and aligned using STAR (version 2.5.2a; Dobin et al. (2013)) to the GRCh37 assembly with the gene, transcript, and exon features of Ensembl (release 70) gene model. Quality control metrics were computed using RNA-SeQC (version 1.1.8; DeLuca et al. (2012)) and expression was estimated using RSEM (version 1.2.30; Li and Dewey (2011)). In our analysis, we corrected for library size by dividing each sample's gene count by million reads mapped. This procedure is a common approach known as counts per million (CPM). We further corrected for differences in RNA composition using a method proposed by Robinson and Oshlack (2010a) called trimmed mean of M values (TMM). We used the function calcNormFactors( ) from the edgeR package (Robinson, McCarthy, and Smyth (2010b)) to obtain TMM factors and used these to correct for differences in RNA composition. Differential expression (DE) analysis was performed using the R package edgeR (Robinson, McCarthy, and Smyth (2010b)). Note that the inputs for DE analysis are the filtered but not normalised read counts, since edgeR performs normalisation (library size and RNA composition) internally. The […]( ) function was used to fit a quasi-likelihood negative binomial generalised log-linear model to the read counts for each gene. Using the […]( ) function, we conducted gene-wise empirical Bayes quasi-likelihood F-tests for a given contrast. As per the edgeR user's guide, “the quasi-likelihood method is highly recommended for differential expression analyses of bulk RNA-seq data [versus the likelihood ratio test] as it gives stricter error rate control by accounting for the uncertainty in dispersion estimation”.

[3] = test system: 4T1 TNBC metastatic cancer cells; test: 4T1 model of metastatic breast cancer in mice; type: in vivo, mouse
Procedure: 4T1 Gold standard immunotherapy resistant mouse model mice obtained from the ARC, Perth and mice were inoculated with 4T1 TNBC metastatic cancer cells. DL-2 is supplied lyophilised in glass vials and was reconstituted using sodium chloride injection BP (0.9% saline) to make a stock solution of 10 mg/mL using a needle/syringe, DL-2 was mixed by inversion. Animals were then injected by intraperitoneal injection at 10, 20 or 30 mg/kg daily and rested over the weekend. Mice were monitored over time for body weight and tumour volume.
4T1 Gold standard immunotherapy resistant mouse model mice obtained from the ARC, Perth and mice were inoculated with 4T1 TNBC metastatic cancer cells. DL-2 or DL-2-D is supplied lyophilised in glass vials was reconstituted using sodium chloride injection BP (0.9% saline) to make a stock solution of 10 mg/mL using a needle/syringe, DL-2 was mixed by inversion. Animals were then injected by intraperitoneal injection and mice were monitored over time for body weight and tumour volume for DL-2 at 20 mg/kg every second day with resting over the weekend in conjunction with αPD1 or isotype control (10 mg/kg).
DL-2-D was mixed by inversion. Animals were then injected by intraperitoneal injection and mice were monitored over time for body weight and tumour volume for DL-2-D at a concentration of 20 mg/kg every two days (identical regime to αPD1) in conjunction with αPD1 or isotype control (10 mg/kg).

For “LTFIFRLRKGRMMDVKK (Myristyl-LTFIFRLRKGRMMDVKK) [PDL1-L1, Myristyl- linear peptide, prototype]”, the “Potency (CSC inhibition)” value [1] was “Weak”.

In the case of `CCCCCCCCCCCCCC(=O)NC(C)C(=O)NC1CSCc2cc3cc(c2)CSC[C@H](NC(=O)[C@H](Cc2ccccc2)NC(=O)[C@H](C(C)CC)NC(=O)[C@H](Cc2ccccc2)NC(=O)[C@H]([C@@H](C)O)NC(=O)C(CC(C)C)NC1=O)C(=O)N[C@@H](CCCNC(C)=N)C(=O)N[C@@H](CC(C)C)C(=O)N[C@@H](CCCNC(=N)N)C(=O)N[C@@H](CCCCN)C(=O)NCC(=O)N[C@@H](CCCNC(=N)N)C(=O)NC(C(=O)N[C@@H](CCSC)C(=O)NC(CCSC)C(=O)N[C@@H](CC(=O)O)C(=O)NC(C(=O)N[C@@H](CCCCN)C(=O)NC(CCCCN)C(=O)O)C(C)C)CSC3` (mixture of isomers) [DL-2], the “logFC A2M” value [2] is reported as 1.461, the “logFC AKR1C1” value [2] is reported as −1.324 and the “logFC ALDH1A3” value [2] is reported as −0.9248. For the same compound, the “logFC ATP6V0B” value [2] was 0.647, the “logFC B3GAT3” value [2] was 0.8186 and the “logFC BSCL2” value [2] was 0.9849. For the same compound, the “logFC C19orf10” value [2] was 0.7917, the “logFC CAMSAP2” value [2] was −0.7468 and the “logFC CD99” value [2] was 0.6829. For the same compound, the “logFC CDKN2B” value [2] was −0.5982, the “logFC CHPF” value [2] was 0.6073 and the “logFC CTNNAL1” value [2] was −0.5943. The “logFC CTSD” value [2] was 1.079, the “logFC CXCL12” value [2] was 1.155 and the “logFC ELF1” value [2] was −0.7207. The “logFC ENTPD1” value [2] was 0.8956, the “logFC ETV3” value [2] was −0.6424 and the “logFC FILIP1L” value [2] was −0.7563. For the same compound, the “logFC FOXN3” value [2] was −0.75, the “logFC IFIT2” value [2] was −1.213 and the “logFC IGFBP2” value [2] was 0.7385. The “logFC IGFBP4” value [2] was 0.6164, the “logFC INPP4B” value [2] was −0.6381 and the “logFC KIAA1324” value [2] was 0.6324. For the same compound, the “logFC KLHL5” value [2] was −1.028, the “logFC MANF” value [2] was 0.8172 and the “logFC MMP9” value [2] was −1.43. The “logFC MOB1A” value [2] was −0.6723, the “logFC MUC1” value [2] was 0.9921 and the “logFC NEDD9” value [2] was −0.7516. For the same compound, the “logFC NEU1” value [2] was 0.6165, the “logFC PPIB” value [2] was 0.8358 and the “logFC PRDX4” value [2] was 0.6511. The “logFC QKI” value [2] was −0.8595, the “logFC RAI14” value [2] was −0.8091 and the “logFC SERPINA3” value [2] was 1.008. For the same compound, the “logFC SGCG” value [2] was 1.126, the “logFC SIRT1” value [2] was −0.7444 and the “logFC SLC7A11” value [2] was −0.8545. The “logFC STC1” value [2] was 0.7265, the “logFC TACC1” value [2] was −0.6077 and the “logFC TAPBP” value [2] was 0.5968. The “logFC TBC1D5” value [2] was −0.897, the “logFC TCN1” value [2] was 2.029 and the “logFC TFF1” value [2] was 1.253. The “logFC TMED3” value [2] was 0.6673, the “logFC TXNRD1” value [2] was −0.7667 and the “logFC ZMYND11” value [2] was −2.883. The “logFC ZNF267” value [2] was −0.6577, the body weight ([3]; DL-2 and anti-PD1 combination therapy) was “No change” and the primary tumour volume ([3]; DL-2 in combination with an anti-PD1 antibody, 10 day treatment period) was “significantly reduces”. For the same compound, the “lung, liver or spleen weights” value ([3]; DL-2 in combination with anti-PD1) was “does not alter”, the body weight ([3]; DL-2 monotherapy) was “No change” and the “lung, liver or spleen weights” value ([3]; DL-2 monotherapy) was “does not alter”. For the same compound, the primary tumour volume ([3]; DL-2 monotherapy 20 and 30 mg/kg i.p., eight day treatment period) was “reduces” and the tumour weight ([3]; DL-2 monotherapy 20 and 30 mg/kg, after 8 days) was “significantly reduced”.
